{"source": "ChEMBL document CHEMBL1201862", "about": "“PubChem BioAssay data set” (2004)", "key": {"[1]": {"target": "Major prion protein (Homo sapiens, UniProt P04156)", "assay_type": "functional, cell-based"}, "[2]": {"experiment": "cells"}, "[3]": {"experiment": "cells", "assay_type": "functional, cell-based"}, "[4]": {"experiment": "inhibitors of intracellular T. cruzi replication, confirmation, NIH3T3 host cells, beta-gal luminescence (AID 2044);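 also: luminescent beta-galactosidase reporter signal from transgenic T. cruzi replicating inside host cells; inhibitors lower the luminescence signal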", "assay_type": "functional, cell-based"}, "[5]": {"experiment": "cells", "assay_type": "functional, cell-based", "remark": "listed apart in the source"}, "[6]": {"experiment": "cytotoxicity toward NIH3T3 fibroblasts, dose response, counter-screen, cell-based, ATP luminescence, mouse fibroblasts (AID 2010);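 also: cells exposed to compound for about 90 hours before reading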", "assay_type": "functional"}, "[7]": {"target": "T1, Microphthalmia-associated transcription factor (Homo sapiens, UniProt O75030)", "T1 sequence (O75030 whole entry)": "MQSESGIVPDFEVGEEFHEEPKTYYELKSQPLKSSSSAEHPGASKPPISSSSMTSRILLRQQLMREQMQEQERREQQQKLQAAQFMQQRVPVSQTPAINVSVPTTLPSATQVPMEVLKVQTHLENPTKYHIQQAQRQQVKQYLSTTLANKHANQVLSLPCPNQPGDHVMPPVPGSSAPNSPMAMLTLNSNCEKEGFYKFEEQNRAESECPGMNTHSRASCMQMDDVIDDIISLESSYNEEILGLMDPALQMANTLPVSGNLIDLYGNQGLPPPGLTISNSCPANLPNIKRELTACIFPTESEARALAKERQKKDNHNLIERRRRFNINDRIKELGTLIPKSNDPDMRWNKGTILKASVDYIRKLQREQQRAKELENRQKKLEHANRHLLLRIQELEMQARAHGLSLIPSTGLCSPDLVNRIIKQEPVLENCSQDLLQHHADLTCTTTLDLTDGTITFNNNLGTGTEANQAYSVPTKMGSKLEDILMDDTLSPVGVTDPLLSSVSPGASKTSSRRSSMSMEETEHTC", "experiment": "TRPM1 promoter luciferase signal decrease, dose response, MITF inhibitor project, cell-based, SK-MEL-5, cherry-picked, set 3 (AID 493073)", "assay_type": "functional"}, "[8]": {"tested_on": "A-375", "experiment": "MITF: Counter assay: A375 proliferation Measured in Cell-Based System Using Plate Reader - 2084-03_Inhibitor_Dose_DryPowder_Activity. [Related pubchem assays (depositor defined):AID488944]", "assay_type": "functional", "settings": "Homo sapiens"}, "[9]": {"target": "T2, DNA repair protein RAD52 homolog (Homo sapiens, UniProt P43351)", "T2 sequence (P43351 whole entry)": "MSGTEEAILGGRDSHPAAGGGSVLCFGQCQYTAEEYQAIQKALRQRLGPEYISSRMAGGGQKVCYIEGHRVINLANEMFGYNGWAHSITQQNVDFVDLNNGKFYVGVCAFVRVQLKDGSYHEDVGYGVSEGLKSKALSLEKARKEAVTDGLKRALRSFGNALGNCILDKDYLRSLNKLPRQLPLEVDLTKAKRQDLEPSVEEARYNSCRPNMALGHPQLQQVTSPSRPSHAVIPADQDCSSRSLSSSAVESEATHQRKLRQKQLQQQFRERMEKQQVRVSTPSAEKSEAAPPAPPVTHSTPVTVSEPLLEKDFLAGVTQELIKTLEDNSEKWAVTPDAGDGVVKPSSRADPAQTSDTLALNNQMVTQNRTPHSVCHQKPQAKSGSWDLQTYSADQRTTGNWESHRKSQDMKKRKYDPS", "assay_type": "functional, biochemical"}, "[10]": {"experiment": "HepG2 cell cytotoxicity, dose response, cytotoxicity control, ATP luminescence, cherry-pick, set 6 (AID 1053125)", "assay_type": "functional, cell-based"}, "[11]": {"target": "Transthyretin (Homo sapiens, UniProt P02766)", "experiment": "Luminescence-based cell-based high throughput dose response assay to identify activators of Transthyretin (TTR) transcription.", "assay_type": "functional"}, "[12]": {"experiment": "cells", "settings": "A549"}, "[13]": {"experiment": "cells", "remark": "listed apart in the source"}, "[14]": {"experiment": "cells", "settings": "HEK293"}, "[15]": {"target": "T3, Corticotropin-releasing factor receptor 2/Corticotropin-releasing factor-binding protein (Homo sapiens, UniProt P24387+Q13324)", "T3 sequence (Q13324 whole entry)": "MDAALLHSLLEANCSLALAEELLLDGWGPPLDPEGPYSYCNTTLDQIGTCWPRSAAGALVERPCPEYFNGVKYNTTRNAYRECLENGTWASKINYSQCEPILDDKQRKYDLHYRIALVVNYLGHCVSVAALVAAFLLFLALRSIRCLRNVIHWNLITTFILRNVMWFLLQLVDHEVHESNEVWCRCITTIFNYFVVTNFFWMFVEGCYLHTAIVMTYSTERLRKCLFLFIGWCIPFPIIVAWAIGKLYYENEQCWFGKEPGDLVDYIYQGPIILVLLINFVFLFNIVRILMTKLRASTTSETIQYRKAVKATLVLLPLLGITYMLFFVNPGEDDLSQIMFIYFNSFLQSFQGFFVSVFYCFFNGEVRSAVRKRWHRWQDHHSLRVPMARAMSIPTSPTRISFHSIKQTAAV", "T3 sequence (P24387 whole entry)": "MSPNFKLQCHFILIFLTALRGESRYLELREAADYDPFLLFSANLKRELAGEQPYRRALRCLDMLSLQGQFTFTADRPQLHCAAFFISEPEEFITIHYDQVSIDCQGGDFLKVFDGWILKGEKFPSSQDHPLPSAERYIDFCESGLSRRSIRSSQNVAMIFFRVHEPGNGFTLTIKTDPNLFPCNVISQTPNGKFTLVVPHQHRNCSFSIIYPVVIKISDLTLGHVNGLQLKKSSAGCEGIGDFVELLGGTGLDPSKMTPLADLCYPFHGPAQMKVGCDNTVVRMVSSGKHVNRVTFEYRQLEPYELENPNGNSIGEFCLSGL", "experiment": "Dose Response confirmation of uHTS hits for small molecule antagonists of the CRF-binding protein and CRF-R2 receptor complex.", "assay_type": "functional", "settings": "read-out: IC50_Mean"}, "[16]": {"target": "T3, Corticotropin-releasing factor receptor 2/Corticotropin-releasing factor-binding protein", "experiment": "activators of CRF receptor 2 with binding protein – uHTS hits, confirmation (AID 602473)", "assay_type": "functional", "settings": "read-out: EC50_Mean"}, "[17]": {"target": "Kallikrein-7 (Homo sapiens, UniProt P49862)", "experiment": "Fluorescence Intensity-based biochemical primary high throughput dose response assay to identify activators of kallikrein-7 (K7) zymogen."}, "[18]": {"target": "Tyrosyl-DNA phosphodiesterase 2 (Homo sapiens, UniProt O95551)", "experiment": "human TDP2 enzyme inhibitors, dose response, biochemical, epi absorbance, IC50 (AID 743297)"}, "[19]": {"experiment": "NIH-3T3 fibroblast cytotoxicity, dose response, cytotoxicity control, cell-based, fluorescence, Alamar Blue, secondary assay (AID 2327);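 also: NIH-3T3 mouse fibroblasts cultured with fluconazole at 8 µg/mL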", "assay_type": "functional"}, "[20]": {"experiment": "C. albicans growth with fluconazole, confirmation, fluorescence, retest (AID 2467)", "assay_type": "functional, cell-based"}, "[21]": {"tested_on": "INS1", "experiment": "beta cell apoptosis inhibitors, cytokine rescue, dose response, luminescence, retest (AID 449756);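 also: cell death triggered by IL-1 beta plus TNF-alpha plus IFN-gamma mixture; protective hits raise ATP signal compared with cytokine alone wells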", "assay_type": "functional, cell-based", "settings": "Rattus norvegicus"}, "[22]": {"experiment": "off-target signal loss in HeLa-CEM21 co-culture – HeLa F-luc CTL cells, cherry-picked, counter-screen for HIV-1 Env fusion inhibitor project, dose response (AID 652040);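 also: potency for signal decrease marking cytotoxic or nonspecific inhibition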", "assay_type": "functional, cell-based"}, "[23]": {"experiment": "inhibitors of clade B AD8 Env fusion, dose response, cell-based, cherry-pick (AID 652062);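 also: potency is for inhibitors of fusion seen as a drop in luminescence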", "assay_type": "functional"}, "[24]": {"target": "COUP transcription factor 2 (Homo sapiens, UniProt P24468)", "experiment": "Luminescence-based cell-based high throughput dose response assay to identify inhibitors of COUP-TFII (NR2F2).", "assay_type": "functional"}, "[25]": {"target": "1-phosphatidylinositol 4,5-bisphosphate phosphodiesterase gamma-1 (Homo sapiens, UniProt P19174)", "experiment": "Counterscreen for inhibitors of phospholipase C isozymes (PLC-B3): Fluorescence-based biochemical high throughput dose response assay to identify inhibitors of phospholipase C isozymes (PLC-gamma1)."}, "[26]": {"target": "1-phosphatidylinositol 4,5-bisphosphate phosphodiesterase beta-3 (Homo sapiens, UniProt Q01970)", "experiment": "Fluorescence-based biochemical high throughput dose response assay to identify inhibitors of phospholipase C isozymes (PLC-B3)."}, "[27]": {"target": "Caspase-6 (Homo sapiens, UniProt P55212)", "experiment": "human caspase-6 inhibitors, dose response, biochemical, VEID-R110 fluorescence, cherry-pick (AID 720632)"}, "[28]": {"target": "Caspase-7 (Homo sapiens, UniProt P55210)", "experiment": "human caspase-7 inhibitors, dose response, selectivity assay for caspase-6 inhibitor project, biochemical, DEVD-R110 fluorescence, cherry-pick (AID 743295)", "assay_type": "[…]"}}, "note": "Calls of active or inactive are those of the source.", "data": [{"smiles": "CCOC(=O)CNC(=O)CSc1nc2c(C)cccc2cc1CC", "values": [{"measurement": "IC50", "setting": "[1]", "value": "2.76 µM (active)"}, {"measurement": "IC50", "setting": "[2]", "value": "> 138 µM (inactive)"}]}, {"smiles": "OCCNc1c2ccccc2nc2ccccc12", "values": [{"measurement": "EC50", "setting": "[3]", "value": "23 µM (active)"}, {"measurement": "EC50", "setting": "[4]", "value": "0.993 µM (active)"}, {"measurement": "EC50", "setting": "[5]", "value": "> 350 µM (not active)"}, {"measurement": "EC50", "setting": "[6]", "value": "7.92 µM (active)"}, {"measurement": "AC50", "setting": "[7]", "value": "7.28 µM (active)"}, {"measurement": "AC50", "setting": "[8]", "value": "28.6 µM (active)"}, {"measurement": "AC50", "setting": "[9]", "value": "9.09 µM (active)"}, {"measurement": "AC50", "setting": "[10]", "value": "17 µM (active)"}, {"measurement": "EC50", "setting": "[11]", "value": "> 167 µM (inactive)"}, {"measurement": "AC50", "setting": "[12]", "value": "11.6 µM (active)"}, {"measurement": "AC50", "setting": "[13]", "value": "11.7 µM (active)"}, {"measurement": "AC50", "setting": "[14]", "value": "14.2 µM (active)"}]}, {"smiles": "CCCCOC(=O)Oc1ccc2c(=O)c(Oc3cccc(C)c3)coc2c1", "values": [{"measurement": "IC50", "setting": "[15]", "value": "> 47.1 µM (inactive)"}, {"measurement": "EC50", "setting": "[16]", "value": "> 53 µM (inactive)"}, {"measurement": "EC50", "setting": "[17]", "value": "6.86 µM (active)"}]}, {"smiles": "CC1=NN(c2ccccc2)C(=O)/C1=C\\c1ccc(Br)s1", "values": [{"measurement": "IC50", "setting": "[18]", "value": "> 128 µM (inactive)"}]}, {"smiles": "Clc1ccc(OCCN2CCN(c3ncnc4sccc34)CC2)cc1", "values": [{"measurement": "EC50", "setting": "[19]", "value": "> 150 µM (inactive)"}, {"measurement": "EC50", "setting": "[20]", "value": "0.044 µM (active)"}, {"measurement": "AC50", "setting": "[21]", "value": "0.503 µM (active)"}, {"measurement": "AC50", "setting": "[22]", "value": "> 70 µM (inactive)"}, {"measurement": "AC50", "setting": "[23]", "value": "< 0.26 µM (active)"}, {"measurement": "IC50", "setting": "[24]", "value": "1.13 µM (active)"}]}, {"smiles": "O=C(CSCc1ccccc1)Nc1cccc(F)c1", "values": [{"measurement": "IC50", "setting": "[25]", "value": "> 122 µM (inactive)"}, {"measurement": "IC50", "setting": "[26]", "value": "> 122 µM (inactive)"}]}, {"smiles": "Cc1n[nH]c([S+]([O-])CC(=O)O)c1[N+](=O)[O-]", "note": "(stereo not drawn)", "values": [{"measurement": "AC50", "setting": "[27]", "value": "4.04 µM (active)"}, {"measurement": "AC50", "setting": "[28]", "value": "56.5 µM (active)"}]}]}
